Experimental findings from publication PMC10242655, “Syringin inhibits endogenous volume regulated anion channel currents of HEK293 cells in hypotonic circumstances” (Pharmacology Research & Perspectives, 2023) are described below.

For the test, the target named is T1, VRAC (LRRC8A) (Homo sapiens, UniProt Q8IWT6).
T1 construct: endogenous VRAC channels of wild-type HEK293 cells; with at least one other LRRC8 subunit (LRRC8B-E; composition not determined)
T1 sequence (Q8IWT6 1-810): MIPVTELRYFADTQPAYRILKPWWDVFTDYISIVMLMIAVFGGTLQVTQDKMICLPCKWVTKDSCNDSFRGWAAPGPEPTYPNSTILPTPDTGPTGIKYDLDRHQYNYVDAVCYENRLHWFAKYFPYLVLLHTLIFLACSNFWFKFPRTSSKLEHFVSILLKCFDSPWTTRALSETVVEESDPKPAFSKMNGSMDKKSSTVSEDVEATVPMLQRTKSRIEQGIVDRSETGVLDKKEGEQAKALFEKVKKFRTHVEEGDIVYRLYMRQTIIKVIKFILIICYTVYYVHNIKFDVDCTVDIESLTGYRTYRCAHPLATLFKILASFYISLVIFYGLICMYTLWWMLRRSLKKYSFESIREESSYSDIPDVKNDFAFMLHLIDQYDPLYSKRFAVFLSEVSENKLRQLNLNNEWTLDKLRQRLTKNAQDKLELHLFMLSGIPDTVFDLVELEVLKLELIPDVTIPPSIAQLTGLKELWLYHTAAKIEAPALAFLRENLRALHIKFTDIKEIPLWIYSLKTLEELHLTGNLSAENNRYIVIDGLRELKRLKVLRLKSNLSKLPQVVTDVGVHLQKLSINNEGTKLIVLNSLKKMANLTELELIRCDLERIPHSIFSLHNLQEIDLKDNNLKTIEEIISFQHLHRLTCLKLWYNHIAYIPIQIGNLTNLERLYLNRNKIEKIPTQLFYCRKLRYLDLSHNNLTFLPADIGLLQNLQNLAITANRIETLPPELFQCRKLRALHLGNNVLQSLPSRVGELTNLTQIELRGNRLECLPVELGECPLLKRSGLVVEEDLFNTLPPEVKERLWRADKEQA
In words: whole-cell patch clamp of hypotonicity-induced VRAC currents in HEK293; I/I0 […] at […]. The class given is cell-based. (In general: In patch-clamp work, channel activity is measured electrically.)

As for `COc1cc(/C=C/CO)cc(OC)c1O[C@@H]1O[C@H](CO)[C@@H](O)[C@H](O)[C@H]1O` [Syringin, 4‐[(1E)‐3‐hydroxyprop‐1‐en‐1‐yl]‐2,6‐dimethoxyphenyl β‐D‐glucopyranoside], the “whole-cell patch clamp of hypotonicity-induced VRAC currents in HEK293; I/I0 0.6” value is “I/I0 0.61 ± 0.02 at 100 μM”.
